US20100317578A1, “METHOD OF PROTECTING AGAINST STROKE THROUGH THE USE OF A DELTA OPIOID PEPTIDE” (priority 2009, published 2010)

Legend:
Format in all cases: in vivo, Sprague-Dawley rats
[1] = tested on: nerve growth factor (NGF); assay: ELISA assay of NGF in brain tissues; settings: striatal and cortical tissues, p>0.05
Description: (§1) To examine possible non-opioid effects of DADLE, assays of expression of neurotrophic factors (glial cell line-derived neurotrophic factor (GDNF) and nerve growth factor (NGF)) that have been previously shown to be protective against ischemia were performed. Enzyme-linked immunosorbent assay (ELISA) was conducted on ischemic animals injected either with DADLE or saline (n=6 per group). Following the same drug dosing regimen mentioned above, animals were rapidly decapitated, their brains removed and striatal and frontal cortical tissues quickly dissected. Brain homogenization and supernatant acidification were performed using methods as described in Okragly et al., Exp Neurol 1997, 145:592-596 [37] with minor modifications. Protein concentrations were measured by using the BCA Kit (Pierse, Rockford, Ill. USA). For the measurement of GDNF, mouse monoclonal anti-GDNF antibody (R & D Systems, Inc., Minnesota, USA) was used as a capture antibody and biotinylated goat anti-GDNF antibody (R & D Systems, Inc., Minnesota, USA) was used as a detection antibody. For the measurement of NGF, the NGF Emax TM ImmunoAssay system (Promega Cooperation, Madison, Wis., USA) was used. The THERMOmax 96-well microplate reader (Molecular Devices Corp., Sunnyvale, Calif. USA) was used to measure the optical densities.

[2] = tested on: glial cell line-derived neurotrophic factor (GDNF); assay: ELISA assay of GDNF in brain tissues; settings: striatal and cortical tissues, p<0.05
Description: as §1

caspase-3 = assay: Immunohistochemistry of apoptosis markers, caspase-3; settings: ischemic striatum, 72 hours after MCAor
Description: (§2) In order to further characterize the effects of DADLE on apoptotic cell death, 20 animals were subjected to the same procedures as above, and the treatment effects of DADLE (n=10) against saline vehicle alone (n=10) were compared. Rats were euthanized at 72 hours after MCAor surgery. The rats were perfused transcardially with 200 ml of cold phosphate-buffered saline (PBS) and 200 ml of 4% paraformaldehyde in PBS. Brains were removed and post-fixed in the same fixative overnight at 4° C. with the subsequent replacement with 30% sucrose in PBS for 72 hours. The brains were coronally sectioned at the thickness of 8 μm. Sections were washed 3 times for 5 minutes in PBS. Sections were then incubated overnight at 4° C. with caspase-3 (Abeam, 1:500) or Fas (Santa Cruz Biotechnology, 1:100) primary antibody and washed 3 times in PBS. […]
(§3) For morphological analyses, immunoreactive cells in the striatum within the ipsilateral to the stroke hemisphere were examined using a Zeiss LSM510 confocal microscope (Oberkochen, Germany). Specifically, 6 coronal sections at every 300 μm that approximately captured the ischemic striatum (AP −2.0 to +2.0 mm from the bregma) were examined from each rat and the number of positive cells was counted in each 6 high power fields and the averages were used for the statistical analyses. […]

[3] = tested on: cerebral infarction in the striatum after MCAor; assay: Cerebral infarction assay (TTC staining)
Fas = assay: Immunohistochemistry of apoptosis markers, Fas; settings: ischemic striatum, 72 hours after MCAor
Description: as §2, §3

[4] = tested on: ischemia-induced asymmetrical motor deficits (MCAor); assay: Battery of behavioral tests after MCAor surgery
p53 mRNA = assay: Determination of p53 mRNA expression (northern blot); settings: 24 hr post-MCAor
Description: To examine whether DADLE altered programmed cell death or apoptosis, which has been postulated to mediate ischemia-induced cell injury, the mRNA expression of the apoptotic marker p53 were assayed. At 24 hr and 72 hr after MCAor surgery, randomly selected animals that received either DADLE alone or saline alone were euthanized by rapid decapitation. The striatum was dissected and quickly frozen using dry ice then stored in −80° C. freezer until tissue processing was conducted. Total RNA extraction, northern blot analysis and hybridization were conducted using standard methods as described in Chomczynski et al., Anal Biochem 1987, 162:156-159 and Mattson, Brain Res 2000, 886:47-53 [34,35]. Analyses of resulting bands were quantified using a Macintosh computer-based image analysis system (Image, NIH). Densitometrically determined intensities of p-53 mRNA was normalized to 18S rRNA.

[5] = tested on: ischemia-induced biased swing activity (MCAor); assay: Elevated body swing test (EBST); settings: pooled mean of ischemic animals pretreated with saline, naltrexone alone or naloxone methiodide alone
Description: (§4) After recovery from anesthesia, animals were evaluated on a battery of tests including spontaneous rotational test, elevated body swing test (EBST), postural bias test and forelimb akinesia test.
The EBST is described in detail in Borlongan et al., Exp Neurol 1998, 149:310-321[17], and has been utilized to characterize the biased swing activity of ischemic animals starting at one month post-ischemia and extending up to three months post-surgery. The animal was lifted 20 times by its tail and the direction of the swing was recorded.

[6] = tested on: ischemia-induced postural bias (MCAor); assay: Postural bias (tail-hang) test; settings: scale 0-3; pooled mean of ischemic animals pretreated with saline, naltrexone alone or naloxone methiodide alone
Description: (§5) The spontaneous rotational test was performed immediately after the animal's recovery from anesthesia following insertion of the embolus. The animal was placed in a chamber made of transparent Plexiglas (40×40×35.5 cm) and the direction of the animal's rotation was noted over two 5-minute sessions. Two full turns (tight ipsiversive rotations) per minute was considered indicative of a brain insult. For the postural bias test and forelimb akinesia test, a semiquantitative scale was used as described in Bederson et al., Stroke 1986, 17:472-476 [33].
The postural tail-hang test involved holding the animal by the tail (similar to the EBST) and noting the positions of the forelimbs. A scale is used for grading the ischemic injury-induced dysfunctions as follows: 0, rats extend straight both forelimbs, no observable deficit; 1, rats keep the left forelimb to the breast and extend straight the right forelimb; 2, rats show decreased resistance to lateral push in addition to behavior in score 1 without circling; 3, rats twist the upper half of their body in addition to behavior in score 2.
Finally, the forelimb akinesia test involved pulling each forelimb at 90 degrees away from the body median axis. The return of the forelimb towards the midline was scored as 0 for slow movement with rigidity, 1 for slow movement, and 2 for smooth rapid movement. […]

[7] = tested on: ischemia-induced spontaneous rotational behavior (MCAor); assay: Spontaneous rotational test; settings: pooled mean of ischemic animals pretreated with saline, naltrexone alone or naloxone methiodide alone
Description: as §4, §5

[8] = tested on: ischemia-induced forelimb akinesia (MCAor); assay: Forelimb akinesia test; settings: scale 0-2; pooled mean of ischemic animals pretreated with saline, naltrexone alone or naloxone methiodide alone
Description: The spontaneous rotational test [32] was performed immediately after the animal's recovery from anesthesia following insertion of the embolus. The animal was placed in a chamber made of transparent Plexiglas (40×40×35.5 cm) and the direction of the animal's rotation was noted over two 5-minute sessions. Two full turns (tight ipsiversive rotations) per minute was considered indicative of a brain insult [17,32].
Finally, the forelimb akinesia test involved pulling each forelimb at 90 degrees away from the body median axis. The return of the forelimb towards the midline was scored as 0 for slow movement with rigidity, 1 for slow movement, and 2 for smooth rapid movement. A score of 1 in the scale for postural bias test or forelimb akinesia test was considered as indicative of CNS dysfunction [17].

Compound	levels of NGF compared to saline-treated ischemic animals [1]	levels of GDNF compared to saline-treated ischemic animals [2]	caspase-3-positive cells compared to vehicle-treated ischemic animals (caspase-3)	mean volume of infarcted striatal tissue ([3]; rat, in vivo)	Fas-positive cells compared to vehicle-treated ischemic animals (Fas)	behavior in EBST, spontaneous rotational test, postural bias test and forelimb akinesia test ([4]; rat, in vivo)	increment in p-53 mRNA expression in ischemic striatum compared to intact striatum of control, normal animals (p53 mRNA; normalized to 18S rRNA, vehicle 65% increment, not significant vs control (p>0.05))	p-53 mRNA expression in ischemic striatum compared to vehicle-treated ischemic animals (p53 mRNA; only a trend, p=0.07)	mean percentage biased swing response [5]	mean postural bias score [6]	mean ipsiversive rotations per minute [7]	mean volume of infarcted striatal tissue ([3]; TTC staining at 24 or 72 hr after reperfusion, saline 81.2±5.3 mm^3)	mean akinesia score [8]	behavior in EBST, spontaneous rotational test, postural bias test and forelimb akinesia test ([4]; ischemic rats, pretreatment i.p. before MCAor, throughout the post-MCAor test period (day 0 to 3))
CC(C)C[C@@H](NC(=O)[C@H](Cc1ccccc1)NC(=O)CNC(=O)[C@@H](C)NC(=O)[C@@H](N)Cc1ccc(O)cc1)C(=O)O [DADLE, [D-Ala^2,D-Leu^5]enkephalin]	did not differ	significantly higher	significant reductions	no detectable infarction	significant reductions	near-normal behaviors	28%	marked reduction						
C=CC[N+]1(C)CC[C@]23c4c5ccc(O)c4O[C@H]2C(=O)CC[C@@]3(O)[C@H]1C5 (stereo partly drawn) [naloxone methiodide]						significant abnormalities			82.8%±12.3	2.25±0.31	2.52±0.56 rotations per minute	78.7±7.4 mm^3	1.17±0.15	
O=C1CC[C@@]2(O)[C@H]3Cc4ccc(O)c5c4[C@@]2(CCN3CC2CC2)[C@H]1O5 [naltrexone]									82.8%±12.3	2.25±0.31	2.52±0.56 rotations per minute			significant abnormalities
